For 24 molecules, EC50 results are on record in patent publication US8383094B2, “Hepatitis C virus inhibitors” (Bristol-Myers Squibb Company, priority 2008, dated 2013).

The subject of the first assay is HCV 1b genotype. Kind of assay: HCV Replicon assay (HCV-neo replicon cells, wild-type). The conditions noted are these: HCV 1b genotype replicon; range class A-D; read-out: 1b EC50 (in μM or range). The assay is classed as cell-based. The method, then:
An HCV Replicon assay was utilized in the present disclosure, and was prepared, conducted and validated as described in commonly owned PCT/US2006/022197 and in O′Boyle et. al. Antimicrob Agents Chemother, 2005 April; 49(4):1346-53. Assay methods incorporating luciferase reporters have also been used as described (Apath.com).
HCV-neo replicon cells and replicon cells containing mutations in the NS5A region were used to test the currently described family of compounds. The compounds were determined to have more than 10-fold less inhibitory activity on cells containing mutations than wild-type cells. Thus, the compounds of the present disclosure can be effective in inhibiting the function of the HCV NS5A protein and are understood to be as effective in combinations as previously described in application PCT/US2006/022197 and commonly owned WO/04014852. Further, the compounds of the present disclosure can be effective against the HCV 1b genotype. It should also be understood that the compounds of the present disclosure can inhibit multiple genotypes of HCV. […] In one embodiment, compounds of the present disclosure are inhibitory versus 1a, 1b, 2a, 2b, 3a, 4a, and 5a genotypes.
(In antiviral work, replicon cells carry a viral genome segment that copies itself.)
For the molecule `O=C1CN(C(C(=O)N2CCC[C@H]2C(=O)Nc2ccc(C#Cc3ccc(NC(=O)[C@@H]4CCCN4C(=O)C(c4ccccc4)N4CCNC(=O)C4)cc3)cc2)c2ccccc2)CCN1` (single isomer, unassigned) [VN33.5], the EC50 lay within 100 to 999 nM.
For `O=C(Nc1ccc(C#Cc2ccc(NC(=O)[C@@H]3CCCN3C(=O)C(c3ccccc3)N3CC[C@@H](O)C3)cc2)cc1)[C@@H]1CCCN1C(=O)C(c1ccccc1)N1CC[C@@H](O)C1` (stereo partly drawn) [VN53, (2S,2′S)-N,N′-(1,2-ethynediyldi-4,1-phenylene)bis(1-(((3R)-3-hydroxy-1-pyrrolidinyl)(phenyl)acetyl)-2-pyrrolidinecarboxamide)], the half-maximal effective concentration (EC50) is 4.57 to 99 nM.
For `CCc1scnc1C(=O)N1CCC[C@H]1C(=O)Nc1ccc(C#Cc2ccc(NC(=O)[C@@H]3CCCN3C(=O)c3ncsc3CC)cc2)cc1` [Example D36.2, (2S,2′S)-N,N′-(4,4′-(ethyne-1,2-diyl)bis(4,1-phenylene))bis(1-(5-ethylthiazole-4-carbonyl)pyrrolidine-2-carboxamide)], the EC50 lay in the range of 4.57 to 99 nM.
For `CCCOC(=O)N[C@@H](C(=O)N1CCC[C@H]1C(=O)Nc1ccc(C#Cc2ccc(NC(=O)[C@@H]3CCCN3C(=O)[C@H](NC(=O)OCCC)c3ccccc3)cc2)cc1)c1ccccc1` [VN56, Dipropyl (1,2-ethynediylbis(4,1-phenylenecarbamoyl(2S)-2,1-pyrrolidinediyl((1R)-2-oxo-1-phenyl-2,1-ethanediyl)))biscarbamate], the concentration for a half-maximal effect (EC50) was less than 4.57 nM.
As for `O=C1CN(C(C(=O)N2CCC[C@H]2C(=O)Nc2ccc(C#Cc3ccc(NC(=O)[C@@H]4CCCN4C(=O)C(c4ccccc4)N4CCNC(=O)C4)cc3)cc2)c2ccccc2)CCN1` (single isomer, unassigned) [VN33], the EC50 was less than 4.57 nM.

Still in this assay, the particulars now being: Hepatitis C virus, HCV 1b genotype replicon; range class A-D; read-out: 1b EC50 (in μM or range).
Turning to `CC(C)(C)OC(=O)Nc1ccc(C#Cc2ccc(NC(=O)[C@@H]3CCCN3C(=O)[C@H](O)c3ccccc3)cc2)cc1` [Example D60.1, tert-Butyl 4-((4-((S)-1-((R)-2-hydroxy-2-phenylacetyl)pyrrolidine-2-carboxamido)phenyl)ethynyl)phenylcarbamate], the EC50 lay in the range of 100 to 999 nM.
For `O=C(Nc1ccc(C#Cc2ccc(NC(=O)[C@@H]3CCCN3C(=O)C(c3ccccc3)N3CC[C@H](O)C3)cc2)cc1)[C@@H]1CCCN1C(=O)C(c1ccccc1)N1CC[C@H](O)C1` (stereo partly drawn) [VN51, (2S,2′S)-N,N′-(1,2-ethynediyldi-4,1-phenylene)bis(1-(((3S)-3-hydroxy-1-pyrrolidinyl)(phenyl)acetyl)-2-pyrrolidinecarboxamide)], the EC50 is 4.57 to 99 nM.
For the molecule `CN(C)[C@H](Cc1ccccc1)C(=O)N1CCC[C@H]1C(=O)Nc1ccc(C#Cc2ccc(NC(=O)[C@@H]3CCCN3C(=O)[C@@H](Cc3ccccc3)N(C)C)cc2)cc1` [VN28, (2S,2′S)-N,N′-(1,2-ethynediyldi-4,1-phenylene)bis(1-((2R)-2-(dimethylamino)-3-phenylpropanoyl)-2-pyrrolidinecarboxamide)], the 50% effective concentration (EC50) is less than 4.57 nM.
Same read-out and setting: the value for `CN1CCc2ccccc2[C@@H]1C(=O)N1CCC[C@H]1C(=O)Nc1ccc(C#Cc2ccc(NC(=O)[C@@H]3CCCN3C(=O)[C@H]3c4ccccc4CCN3C)cc2)cc1` [VN32, (R,2S,2′S)-N,N′-(4,4′-(ethyne-1,2-diyl)bis(4,1-phenylene))bis(1-((R)-2-methyl-1,2,3,4-tetrahydroisoquinoline-1-carbonyl)pyrrolidine-2-carboxamide)] was 100 to 999 nM; that for `O=C(Nc1ccc(C#Cc2ccc(NC(=O)[C@@H]3CCCN3C(=O)C3(c4ccccc4)CC3)cc2)cc1)[C@@H]1CCCN1C(=O)C1(c2ccccc2)CC1` [VN4, (2S,2′S)-N,N′-(1,2-ethynediyldi-4,1-phenylene)bis(1-((1-phenylcyclopropyl)carbonyl)-2-pyrrolidinecarboxamide)] was less than 4.57 nM; that for `CC(=O)N1CCC[C@H]1C(=O)Nc1ccc(C#Cc2ccc(NC(=O)[C@@H]3CCCN3C(=O)Cc3cccnc3)nc2)cc1` [Example D57, (2S)-1-Acetyl-N-(4-((6-((((2S)-1-(3-pyridinylacetyl)-2-pyrrolidinyl)carbonyl)amino)-3-pyridinyl)ethynyl)phenyl)-2-pyrrolidinecarboxamide] was 1000 to 10000 nM.
Still for that read-out and setting: the value for `O=C(Nc1ccc(C#Cc2ccc(NC(=O)[C@@H]3CCCN3C(=O)OCc3ccccc3)cc2)cc1)C1CCC1` [Example D20, Benzyl (2S)-2-((4-((4-((cyclobutylcarbonyl)amino)phenyl)ethynyl)phenyl)carbamoyl)-1-pyrrolidinecarboxylate] was 100 to 999 nM; that for `O=C(Nc1ccc(C#Cc2ccc(NC(=O)[C@@H]3CCCN3C(=O)C(c3ccccc3)N3CCC(O)CC3)cc2)cc1)[C@@H]1CCCN1C(=O)C(c1ccccc1)N1CCC(O)CC1` (stereo partly drawn) [VN20, (2S,2′S)-N,N′-(1,2-ethynediyldi-4,1-phenylene)bis(1-((4-hydroxy-1-piperidinyl)(phenyl)acetyl)-2-pyrrolidinecarboxamide)] was 4.57 to 99 nM; that for `CN(CC(N)=O)C(C(=O)N1CCC[C@H]1C(=O)Nc1ccc(C#Cc2ccc(NC(=O)[C@@H]3CCCN3C(=O)C(c3ccccc3)N(C)CC(N)=O)cc2)cc1)c1ccccc1` (stereo partly drawn) [VN45, (2S,2′S)-N,N′-(1,2-ethynediyldi-4,1-phenylene)bis(1-(((2-amino-2-oxoethyl)(methyl)amino)(phenyl)acetyl)-2-pyrrolidinecarboxamide)] was 4.57 to 99 nM.
For `CN[C@H](C(=O)N1CCC[C@H]1C(=O)Nc1ccc(C#Cc2ccc(NC(=O)[C@@H]3CCCN3C(=O)[C@@H](NC)c3ccccc3)cc2)cc1)c1ccccc1` [VN31, (2S,2′S)-N,N′-(1,2-ethynediyldi-4,1-phenylene)bis(1-((2S)-2-(methylamino)-2-phenylacetyl)-2-pyrrolidinecarboxamide)], the concentration for a half-maximal effect (EC50) is less than 4.57 nM.
`O=C(Nc1ccc(C#Cc2ccc(NC(=O)[C@@H]3CCCN3C(=O)[C@H]3CCCO3)cc2)cc1)C1CCC1` [Example D24, N-(4-((4-((cyclobutylcarbonyl)amino)phenyl)ethynyl)phenyl)-1-((2R)-tetrahydro-2-furanylcarbonyl)-L-prolinamide]: the EC50 was in the range of 1000 to 10000 nM.
As for `CC(=O)N1CCC[C@H]1C(=O)Nc1ccc(C#Cc2ccc(NC(=O)[C@@H]3CCCN3C(=O)Cc3ccccc3)nc2)cc1` [Example D55, (2S)-1-Acetyl-N-(4-((6-((((2S)-1-(phenylacetyl)-2-pyrrolidinyl)carbonyl)amino)-3-pyridinyl)ethynyl)phenyl)-2-pyrrolidinecarboxamide], the concentration giving a half-maximal response (EC50) lay in the range of 100 to 999 nM.
Consider `CC(C)C(=O)N[C@@H](C(=O)N1CCC[C@H]1C(=O)Nc1ccc(C#Cc2ccc(NC(=O)[C@@H]3CCCN3C(=O)[C@H](NC(=O)C(C)C)c3ccccc3)cc2)cc1)c1ccccc1` [VN25, (2S,2′S)-N,N′-(1,2-ethynediyldi-4,1-phenylene)bis(1-((2R)-2-(isobutyrylamino)-2-phenylacetyl)-2-pyrrolidinecarboxamide)], for which the EC50 is less than 4.57 nM.
For `O=C(Nc1ccc(C#Cc2ccc(NC(=O)[C@@H]3CCCN3C(=O)C3(c4ccccc4)CCCC3)cc2)cc1)[C@@H]1CCCN1C(=O)C1(c2ccccc2)CCCC1` [VN5, (2S,2′S)-N,N′-(1,2-ethynediyldi-4,1-phenylene)bis(1-((1-phenylcyclopentyl)carbonyl)-2-pyrrolidinecarboxamide)], the EC50 fell in the range of 4.57 to 99 nM.
For `O=C(Nc1ccc(C#Cc2ccc(NC(=O)[C@@H]3CCCN3C(=O)[C@H](O)c3ccccc3)cc2)cc1)[C@@H]1CCCN1C(=O)[C@H](O)c1ccccc1` [Example D43, (2S,2′S)-N,N′-(1,2-ethynediyldi-4,1-phenylene)bis(1-((2R)-2-hydroxy-2-phenylacetyl)-2-pyrrolidinecarboxamide)], the 50% effective concentration (EC50) was less than 4.57 nM.
`CC(C)(C(=O)N1CCC[C@H]1C(=O)Nc1ccc(C#Cc2ccc(NC(=O)[C@@H]3CCCN3C(=O)C(C)(C)c3ccccc3)cc2)cc1)c1ccccc1` [VN3, (2S,2′S)-N,N′-(1,2-ethynediyldi-4,1-phenylene)bis(1-(2-methyl-2-phenylpropanoyl)-2-pyrrolidinecarboxamide)]: the 50% effective concentration (EC50) fell in the range of 4.57 to 99 nM.

The same assay, now with this note: Hepatitis C virus, HCV 1b genotype replicon; read-out: 1b EC50 (in μM or range).
Take `O=C(Nc1ccc(C#Cc2ccc(NC(=O)[C@@H]3CCCN3C(=O)C(c3ccccc3)N3CCC(O)CC3)cc2)cc1)[C@@H]1CCCN1C(=O)C(c1ccccc1)N1CCC(O)CC1` (stereo partly drawn) [VN21, (2S,2′S)-N,N′-(1,2-ethynediyldi-4,1-phenylene)bis(1-((4-hydroxy-1-piperidinyl)(phenyl)acetyl)-2-pyrrolidinecarboxamide)]: the EC50 was 0.035 nM.
With `COc1ccc2c(C(=O)N3CCC[C@H]3C(=O)Nc3ccc(C#Cc4ccc(NC(=O)[C@@H]5CCCN5C(=O)c5nc(Cl)cc6cc(OC)ccc56)cc4)cc3)nc(Cl)cc2c1` [Example D35, (2S,2′S)-N,N′-(1,2-ethynediyldi-4,1-phenylene)bis(1-((3-chloro-6-methoxy-1-isoquinolinyl)carbonyl)-2-pyrrolidinecarboxamide)], the concentration for a half-maximal effect (EC50) was determined as 94 nM.

Still in this assay, the particulars now being: Hepatitis C virus, read-out: 1b EC50 (in μM or range), HCV 1b genotype replicon.
`O=C(Nc1cncc(C#Cc2cncc(NC(=O)[C@@H]3CCCN3C(=O)Cc3ccccc3)c2)c1)[C@@H]1CCCN1C(=O)Cc1ccccc1` [YQ2, (2S,2′S)-N,N′-(1,2-ethynediyldi-5,3-pyridinediyl)bis(1-(phenylacetyl)-2-pyrrolidinecarboxamide)]: the EC50 is 523000 nM.

A word on the EC50: it is the concentration that produces a half-maximal response.
